Data reported in ChEMBL document CHEMBL5257023, “Identification of leads for antiproliferative activity on MDA-MB-435 human breast cancer cells through pharmacophore and CYP1A1-mediated metabolism” (Eur J Med Chem, 2016).

Experiments:
[1] = system: MDA-MB-468; experiment: Anticancer activity against human MDA-MB-468 cells assessed as cell growth at 100 uM incubated for 48 hrs by SRB assay; format: functional; conditions: read-out: Activity
[2] = system: MDA-MB-435; experiment: Anticancer activity against human MDA-MB-435 cells assessed as cell growth at 10 uM incubated for 48 hrs by SRB assay; format: functional; conditions: read-out: Activity
[3] = biological target: T1, CYP1A1 (Homo sapiens, UniProt P04798); experiment: Inhibition of recombinant CYP1A1 (unknown origin) assessed as residual enzyme activity using 7-ethoxyresorufin as substrate at 10 uM incubated for 15 mins by resorufin dye based spectrofluorimetry (reference value: 100%); format: ADME; conditions: recombinant CYP1A1, probe 7-ethoxyresorufin, read-out: Activity
T1 sequence (P04798 whole entry): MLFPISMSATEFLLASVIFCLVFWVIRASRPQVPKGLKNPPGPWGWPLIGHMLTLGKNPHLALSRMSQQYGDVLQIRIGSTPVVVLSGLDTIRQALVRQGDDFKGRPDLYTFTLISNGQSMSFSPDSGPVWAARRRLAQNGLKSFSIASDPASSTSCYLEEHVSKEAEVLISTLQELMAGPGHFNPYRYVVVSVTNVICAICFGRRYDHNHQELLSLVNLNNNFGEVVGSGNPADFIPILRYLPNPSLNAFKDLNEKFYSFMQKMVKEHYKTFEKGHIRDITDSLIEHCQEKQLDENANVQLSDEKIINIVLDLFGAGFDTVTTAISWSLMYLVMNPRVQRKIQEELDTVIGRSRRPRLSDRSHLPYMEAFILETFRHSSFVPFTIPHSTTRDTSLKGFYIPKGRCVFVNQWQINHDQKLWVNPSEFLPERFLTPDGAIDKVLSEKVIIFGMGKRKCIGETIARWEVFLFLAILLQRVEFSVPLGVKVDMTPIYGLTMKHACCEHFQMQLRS

[4] = biological target: T1, CYP1A1; experiment: Inhibition of recombinant CYP1A1 (unknown origin) assessed as residual enzyme activity using 7-ethoxyresorufin as substrate at 100 uM incubated for 15 mins by resorufin dye based spectrofluorimetry (reference value: 100%); format: ADME; conditions: recombinant CYP1A1, probe 7-ethoxyresorufin, read-out: Activity
[5] = system: MCF7; experiment: Anticancer activity against human MCF7 cells assessed as cell growth at 0.1 uM incubated for 48 hrs by SRB assay; format: functional; conditions: read-out: Activity
[6] = system: MDA-MB-468; experiment: Anticancer activity against human MDA-MB-468 cells assessed as inhibition of cell growth incubated for 48 hrs by SRB assay; format: functional; conditions: for CC50: read-out: LC50 (the source's name)
[7] = system: NCI-H226; experiment: Anticancer activity against human NCI-H226 cells assessed as cell growth at 100 uM incubated for 48 hrs by SRB assay; format: functional; conditions: read-out: Activity
[8] = system: MCF7; experiment: Anticancer activity against human MCF7 cells assessed as cell growth at 1 uM incubated for 48 hrs by SRB assay; format: functional; conditions: read-out: Activity
[9] = biological target: T1, CYP1A1; experiment: Inhibition of recombinant CYP1A1 (unknown origin) assessed as residual enzyme activity using 7-ethoxyresorufin as substrate at 0.01 uM incubated for 15 mins by resorufin dye based spectrofluorimetry (reference value: 100%); format: ADME; conditions: recombinant CYP1A1, probe 7-ethoxyresorufin, read-out: Activity
[10] = system: NCI-H226; experiment: Anticancer activity against human NCI-H226 cells assessed as cell growth at 0.1 uM incubated for 48 hrs by SRB assay; format: functional; conditions: read-out: Activity
[11] = biological target: T2, Cytochrome P450 1A1 (Homo sapiens, UniProt P04798); experiment: Inhibition of recombinant CYP1A1 (unknown origin) assessed as decrease in EROD activity using 7-ethoxyresorufin as substrate upto 100 uM incubated for 15 mins by resorufin dye based spectrofluorimetry; format: ADME; conditions: recombinant enzyme, 0.25 h
T2 sequence (P04798 whole entry): T1 sequence (P04798 whole entry)

[12] = biological target: T1, CYP1A1; experiment: Inhibition of recombinant CYP1A1 (unknown origin) assessed as residual enzyme activity using 7-ethoxyresorufin as substrate at 1 uM incubated for 15 mins by resorufin dye based spectrofluorimetry (reference value: 100%); format: ADME; conditions: recombinant CYP1A1, probe 7-ethoxyresorufin, read-out: Activity
[13] = system: MDA-MB-435; experiment: Anticancer activity against human MDA-MB-435 cells assessed as cell growth at 1 uM incubated for 48 hrs by SRB assay; format: functional; conditions: read-out: Activity
[14] = system: MDA-MB-468; experiment: Anticancer activity against human MDA-MB-468 cells assessed as cell growth at 10 uM incubated for 48 hrs by SRB assay; format: functional; conditions: read-out: Activity
[15] = system: MDA-MB-435; experiment: Anticancer activity against human MDA-MB-435 cells assessed as cell growth at 0.1 uM incubated for 48 hrs by SRB assay; format: functional; conditions: read-out: Activity
[16] = system: MDA-MB-435; experiment: Anticancer activity against human MDA-MB-435 cells assessed as inhibition of cell growth incubated for 48 hrs by SRB assay; format: functional
[17] = system: MCF7; experiment: Anticancer activity against human MCF7 cells assessed as cell growth at 10 uM incubated for 48 hrs by SRB assay; format: functional; conditions: read-out: Activity
[18] = system: MCF7; experiment: Anticancer activity against human MCF7 cells assessed as inhibition of cell growth incubated for 48 hrs by SRB assay; format: functional; conditions: for CC50: read-out: LC50 (the source's name)
[19] = biological target: T1, CYP1A1; experiment: Inhibition of recombinant CYP1A1 (unknown origin) assessed as residual enzyme activity using 7-ethoxyresorufin as substrate at 0.1 uM incubated for 15 mins by resorufin dye based spectrofluorimetry (reference value: 100%); format: ADME; conditions: recombinant CYP1A1, probe 7-ethoxyresorufin, read-out: Activity
[20] = system: MDA-MB-468; experiment: Anticancer activity against human MDA-MB-468 cells assessed as cell growth at 1 uM incubated for 48 hrs by SRB assay; format: functional; conditions: read-out: Activity
[21] = system: NCI-H226; experiment: Anticancer activity against human NCI-H226 cells assessed as cell growth at 10 uM incubated for 48 hrs by SRB assay; format: functional; conditions: read-out: Activity
[22] = system: MDA-MB-435; experiment: Anticancer activity against human MDA-MB-435 cells assessed as cell growth at 100 uM incubated for 48 hrs by SRB assay; format: functional; conditions: read-out: Activity
[23] = system: NCI-H226; experiment: Anticancer activity against human NCI-H226 cells assessed as cell growth at 1 uM incubated for 48 hrs by SRB assay; format: functional; conditions: read-out: Activity
[24] = system: NCI-H226; experiment: Anticancer activity against human NCI-H226 cells assessed as inhibition of cell growth incubated for 48 hrs by SRB assay; format: functional
[25] = biological target: T1, CYP1A1; experiment: Inhibition of recombinant CYP1A1 (unknown origin) assessed as residual enzyme activity using 7-ethoxyresorufin as substrate at 50 uM incubated for 15 mins by resorufin dye based spectrofluorimetry (reference value: 100%); format: ADME; conditions: recombinant CYP1A1, probe 7-ethoxyresorufin, read-out: Activity
[26] = system: MDA-MB-468; experiment: Anticancer activity against human MDA-MB-468 cells assessed as cell growth at 0.1 uM incubated for 48 hrs by SRB assay; format: functional; conditions: read-out: Activity
[27] = system: MCF7; experiment: Anticancer activity against human MCF7 cells assessed as cell growth at 100 uM incubated for 48 hrs by SRB assay; format: functional; conditions: read-out: Activity

Row | SMILES | growth at 10 µM [2] [%] | activity at 0.25 h, 10 µM [3] [%] | activity at 0.25 h, 100 µM [4] [%] | growth at 0.1 µM [5] [%] | GI50 [6] [µM] | TGI [6] [µM] | CC50 [6] [µM] | growth at 100 µM [7] [%] | growth at 1 µM [8] [%] | activity at 0.25 h, 0.01 µM [9] [%] | growth at 0.1 µM [10] [%] | inhibition (INH) [11] | activity at 0.25 h, 1 µM [12] [%] | growth at 1 µM [13] [%] | growth at 0.1 µM [15] [%] | GI50 [16] [µM] | LC50 [16] [µM] | TGI [16] [µM] | growth at 10 µM [17] [%] | GI50 [18] [µM] | also measured
1 | C[C@H](Oc1ccc(Cl)cc1)C(=O)Nc1sc2c(c1C(N)=O)CCCC2 | 100 | 98.2 | 102 | 81.5 | > 100 | > 100 | > 100 | 61.9 | 76.3 | 100 | 80.9 | Not Active | 97.2 | 100 | 100 | > 100 | > 100 | > 100 | 71.7 | 56.3 | growth at 100 µM [1]: 65.5%; growth at 10 µM [14]: 78.7%; TGI [18]: > 100 µM; CC50 [18]: > 100 µM; activity at 0.25 h, 0.1 µM [19]: 97.7%; growth at 1 µM [20]: 100%; growth at 10 µM [21]: 68.1%; growth at 100 µM [22]: 86.9%; growth at 1 µM [23]: 72.9%; GI50 [24]: > 100 µM; LC50 (concentration killing 50% of cells) [24]: > 100 µM; TGI [24]: > 100 µM; activity at 0.25 h, 50 µM [25]: 97.4%; growth at 0.1 µM [26]: 100%; growth at 100 µM [27]: 27.2%
2 | Cc1nn(C[C@@H](O)COc2ccc3c(C)cc(=O)oc3c2)c(C)c1C | 100 | 96.7 | 103 | 80.4 | 76.6 | > 100 | > 100 | 49.1 | 74.2 | 99.3 | 88.9 | Not Active | 96.7 | 100 | 100 | > 100 | > 100 | > 100 | 69.2 | 52.5 | growth at 100 µM [1]: 33.7%; growth at 10 µM [14]: 94.8%; TGI [18]: > 100 µM; CC50 [18]: > 100 µM; activity at 0.25 h, 0.1 µM [19]: 98.4%; growth at 1 µM [20]: 98%; growth at 10 µM [21]: 72.8%; growth at 100 µM [22]: 77.9%; growth at 1 µM [23]: 77.5%; GI50 [24]: 96.5 µM; LC50 (concentration killing 50% of cells) [24]: > 100 µM; TGI [24]: > 100 µM; activity at 0.25 h, 50 µM [25]: 101%; growth at 0.1 µM [26]: 100%; growth at 100 µM [27]: 25.3%
3 | Cc1ccc(-c2cc(C(N)=O)c3cc(Cl)ccc3n2)o1 | 87.2 | 98.6 | 104 | 98.2 | > 100 | > 100 | > 100 | 39.9 | 92.5 | 98.5 | 84.8 | Not Active | 101 | 95 | 98.4 | > 100 | > 100 | > 100 | 79 | 63.9 | growth at 100 µM [1]: 72.5%; growth at 10 µM [14]: 85.9%; TGI [18]: > 100 µM; CC50 [18]: > 100 µM; activity at 0.25 h, 0.1 µM [19]: 101%; growth at 1 µM [20]: 90.6%; growth at 10 µM [21]: 60.5%; growth at 100 µM [22]: 77.2%; growth at 1 µM [23]: 76.6%; GI50 [24]: 70.5 µM; LC50 (concentration killing 50% of cells) [24]: > 100 µM; TGI [24]: > 100 µM; activity at 0.25 h, 50 µM [25]: 100%; growth at 0.1 µM [26]: 91.9%; growth at 100 µM [27]: 25.5%
4 | NC(=O)c1c(NC(=O)Cc2ccc(F)cc2)sc2c1CCCC2 | 98.9 | 102 | 102 | 89.7 | 91 | > 100 | > 100 | 33 | 84.8 | 99.8 | 89.8 | Not Active | 100 | 99.3 | 99.7 | > 100 | > 100 | > 100 | 79.3 | 68.1 | TGI [18]: > 100 µM; CC50 [18]: > 100 µM; activity at 0.25 h, 0.1 µM [19]: 102%; growth at 10 µM [21]: 71.9%; growth at 100 µM [22]: 84.9%; growth at 1 µM [23]: 78.7%; GI50 [24]: 65.7 µM; LC50 (concentration killing 50% of cells) [24]: > 100 µM; TGI [24]: > 100 µM; activity at 0.25 h, 50 µM [25]: 98.1%; growth at 100 µM [27]: 32.2%
